Type in all cases: cell-based
One assay addresses T1, human TLR7 (Homo sapiens, UniProt Q9NYK1).
T1 construct: host or cells: HEK-Blue cells (HEK293-derived reporter line)
T1 sequence (Q9NYK1 27-1049): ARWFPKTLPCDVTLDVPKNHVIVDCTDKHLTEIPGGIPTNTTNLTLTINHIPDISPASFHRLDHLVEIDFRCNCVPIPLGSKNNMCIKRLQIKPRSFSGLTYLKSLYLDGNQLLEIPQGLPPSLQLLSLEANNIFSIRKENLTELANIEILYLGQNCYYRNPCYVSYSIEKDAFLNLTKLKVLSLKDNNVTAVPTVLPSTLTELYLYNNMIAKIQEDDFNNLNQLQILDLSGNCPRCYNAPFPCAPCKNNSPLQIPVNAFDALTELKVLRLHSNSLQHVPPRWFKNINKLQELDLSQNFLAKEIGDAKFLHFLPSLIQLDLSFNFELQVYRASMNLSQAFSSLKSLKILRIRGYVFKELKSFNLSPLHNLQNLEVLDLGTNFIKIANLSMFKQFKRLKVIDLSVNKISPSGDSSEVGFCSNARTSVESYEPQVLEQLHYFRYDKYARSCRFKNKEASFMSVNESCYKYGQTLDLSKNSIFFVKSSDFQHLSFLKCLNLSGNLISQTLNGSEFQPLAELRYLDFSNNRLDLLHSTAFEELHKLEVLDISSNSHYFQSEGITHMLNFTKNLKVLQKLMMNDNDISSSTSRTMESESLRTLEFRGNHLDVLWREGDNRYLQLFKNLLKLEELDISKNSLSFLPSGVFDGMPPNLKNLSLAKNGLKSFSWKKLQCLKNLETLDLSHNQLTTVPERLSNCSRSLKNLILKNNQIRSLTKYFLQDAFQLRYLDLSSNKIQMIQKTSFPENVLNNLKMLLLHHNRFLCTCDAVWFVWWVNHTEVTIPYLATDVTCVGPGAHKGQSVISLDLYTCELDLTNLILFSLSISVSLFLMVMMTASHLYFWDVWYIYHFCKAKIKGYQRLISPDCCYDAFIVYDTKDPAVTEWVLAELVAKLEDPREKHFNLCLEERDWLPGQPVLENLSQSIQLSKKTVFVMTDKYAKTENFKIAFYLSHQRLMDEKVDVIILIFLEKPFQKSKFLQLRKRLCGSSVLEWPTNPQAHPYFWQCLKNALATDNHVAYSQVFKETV
Kind of assay: TLR7 inhibition reporter assay (HEK-Blue cells, SEAP reporter, gardiquimod stimulation). As to conditions: HEK-Blue cells overexpressing human TLR7, SEAP reporter, gardiquimod 7.5 μM. The method, boiled down: (§1)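 Cells seeded per well (15000 TLR7, 20,000 TLR8, 25,000 TLR9); compound added over 0.05 nM–50 μM for 30 min at room temperature; agonist added (TLR7 gardiquimod 7.5 μM, TLR8 R848 15.9 μM, TLR9 ODN2006 5 nM); 22 h at 37 °C; SEAP measured; percent inhibition calculated.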
On the technique in general: A reporter such as luciferase makes a cellular process visible.

In another assay the target is T2, human TLR8 (Homo sapiens, UniProt Q9NR97).
T2 construct: host or cells: HEK-Blue cells (HEK293-derived reporter line)
T2 sequence (Q9NR97 27-1041): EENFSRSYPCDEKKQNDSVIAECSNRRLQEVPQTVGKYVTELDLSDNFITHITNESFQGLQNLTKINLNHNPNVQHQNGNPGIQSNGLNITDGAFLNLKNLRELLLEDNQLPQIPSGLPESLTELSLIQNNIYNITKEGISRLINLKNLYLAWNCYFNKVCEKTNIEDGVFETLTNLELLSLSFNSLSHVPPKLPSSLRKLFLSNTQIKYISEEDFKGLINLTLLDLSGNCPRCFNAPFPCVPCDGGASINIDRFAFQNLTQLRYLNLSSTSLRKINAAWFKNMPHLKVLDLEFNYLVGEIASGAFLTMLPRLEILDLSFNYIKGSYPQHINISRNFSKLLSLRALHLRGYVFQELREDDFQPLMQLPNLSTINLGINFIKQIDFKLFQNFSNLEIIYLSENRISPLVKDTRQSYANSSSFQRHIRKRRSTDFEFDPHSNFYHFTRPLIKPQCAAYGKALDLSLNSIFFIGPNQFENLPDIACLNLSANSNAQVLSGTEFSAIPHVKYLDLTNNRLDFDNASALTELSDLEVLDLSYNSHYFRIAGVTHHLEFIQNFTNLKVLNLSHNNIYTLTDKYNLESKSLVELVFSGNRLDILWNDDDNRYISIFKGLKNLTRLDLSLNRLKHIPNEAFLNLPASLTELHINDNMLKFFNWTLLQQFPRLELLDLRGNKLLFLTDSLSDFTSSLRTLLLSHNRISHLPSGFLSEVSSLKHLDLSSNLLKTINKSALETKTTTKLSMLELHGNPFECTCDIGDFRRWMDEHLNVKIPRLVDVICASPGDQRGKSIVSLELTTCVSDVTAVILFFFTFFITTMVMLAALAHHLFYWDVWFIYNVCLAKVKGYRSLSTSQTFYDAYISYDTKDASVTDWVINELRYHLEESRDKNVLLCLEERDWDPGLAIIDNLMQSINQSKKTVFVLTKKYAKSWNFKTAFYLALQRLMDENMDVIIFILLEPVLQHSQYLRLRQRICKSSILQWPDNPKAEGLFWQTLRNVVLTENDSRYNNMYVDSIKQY
As to the kind of experiment: TLR8 inhibition reporter assay (HEK-Blue cells, SEAP reporter, R848 stimulation). As to conditions: HEK-Blue cells overexpressing human TLR8, SEAP reporter, R848 15.9 μM. Summed up: as §1

In the next assay the target is T3, human TLR9 (Homo sapiens, UniProt Q9NR96).
T3 construct: host or cells: HEK-Blue cells (HEK293-derived reporter line)
T3 sequence (Q9NR96 26-1032): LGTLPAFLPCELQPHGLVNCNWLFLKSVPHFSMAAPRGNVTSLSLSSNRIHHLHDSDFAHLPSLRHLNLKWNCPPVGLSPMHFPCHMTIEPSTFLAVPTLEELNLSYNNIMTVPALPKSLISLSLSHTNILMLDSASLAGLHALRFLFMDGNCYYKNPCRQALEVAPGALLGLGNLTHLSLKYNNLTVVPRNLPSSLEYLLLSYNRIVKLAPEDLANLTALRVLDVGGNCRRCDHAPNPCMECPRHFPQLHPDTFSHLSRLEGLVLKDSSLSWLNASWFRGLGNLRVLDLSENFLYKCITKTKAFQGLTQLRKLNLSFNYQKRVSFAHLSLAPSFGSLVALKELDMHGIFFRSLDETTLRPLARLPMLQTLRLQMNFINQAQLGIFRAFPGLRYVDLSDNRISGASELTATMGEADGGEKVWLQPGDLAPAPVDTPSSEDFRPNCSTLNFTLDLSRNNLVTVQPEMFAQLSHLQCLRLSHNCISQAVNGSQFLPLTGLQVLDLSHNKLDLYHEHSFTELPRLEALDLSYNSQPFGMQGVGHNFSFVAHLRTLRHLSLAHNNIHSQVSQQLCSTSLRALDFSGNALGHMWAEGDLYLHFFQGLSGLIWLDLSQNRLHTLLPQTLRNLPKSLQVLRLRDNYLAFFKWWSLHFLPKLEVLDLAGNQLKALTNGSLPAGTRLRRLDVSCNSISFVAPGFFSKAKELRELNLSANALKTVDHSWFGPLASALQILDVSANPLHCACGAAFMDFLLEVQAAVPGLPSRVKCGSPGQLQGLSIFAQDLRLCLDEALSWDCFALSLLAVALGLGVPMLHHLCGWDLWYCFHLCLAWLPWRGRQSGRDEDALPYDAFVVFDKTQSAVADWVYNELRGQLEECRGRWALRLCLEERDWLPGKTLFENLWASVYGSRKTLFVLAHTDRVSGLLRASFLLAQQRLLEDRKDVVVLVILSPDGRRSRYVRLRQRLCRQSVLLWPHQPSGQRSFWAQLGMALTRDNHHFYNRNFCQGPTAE
Kind of assay: TLR9 inhibition reporter assay (HEK-Blue cells, SEAP reporter, ODN2006 stimulation). As to conditions: HEK-Blue cells overexpressing human TLR9, SEAP reporter, ODN2006 5 nM. Summed up:
as §1

The record followed here is patent US11739098B2 (BRISTOL-MYERS SQUIBB COMPANY, priority 2017, dated 2023).

Where only a bound is given, the exact number is not on record here.

As a reminder, the IC50 is the concentration that inhibits the measured activity by half. Lower therefore signals higher potency.

As for `CCc1c(-c2ccnc3[nH]ncc23)[nH]c2ccc(C3CCN(Cc4cnn(C)c4)CC3)cc12` [Example 901, 4-(3-ethyl-5-(1-((1-methyl-1H-pyrazol-4-yl)methyl)piperidin-4-yl)-1H-indol-2-yl)-1H-pyrazolo[3,4-b]pyridine], the results for the IC50 against human TLR7, on human TLR8 and at human TLR9 were 100 to 1000 nM, below 100 nM and 1000 to 50000 nM, respectively.
In the case of `CCN(C)C(=O)c1cn2cc(-c3[nH]c4ccc(C5CCNCC5)cc4c3C(C)C)cc(C)c2n1` [Example 266, N-ethyl-6-(3-isopropyl-5-(piperidin-4-yl)-1H-indol-2-yl)-N,8-dimethylimidazo[1,2-a]pyridine-2-carboxamide], the results for the IC50 against human TLR7, on human TLR8 and on human TLR9 were below 100 nM, below 100 nM and 1000 to 50000 nM, respectively.
`Cc1cc(-c2[nH]c3ccc(C4CCN(C5CCS(=O)(=O)CC5)CC4)cc3c2C(C)C)cn2ccnc12` [Example 799, 4-(4-(3-isopropyl-2-(8-methylimidazo[1,2-a]pyridin-6-yl)-1H-indol-5-yl)piperidin-1-yl)tetrahydro-2H-thiopyran 1,1-dioxide]: the IC50 was below 100 nM against human TLR7, below 100 nM on human TLR8 and 100 to 1000 nM against human TLR9.
As for `CNC(=O)CN1CCC(c2ccc3[nH]c(-c4ccn5nnc(C)c5c4)c(C(C)C)c3c2)CC1` [Example 319, 2-(4-(3-isopropyl-2-(3-methyl-[1,2,3]triazolo[1,5-a]pyridin-5-yl)-1H-indol-5-yl)piperidin-1-yl)-N-methylacetamide], the results for the IC50 at human TLR7, on human TLR8 and against human TLR9 were below 100 nM, below 100 nM and 1000 to 50000 nM, respectively.
Take `Cc1cn2cc(-c3[nH]c4ccc(C5CCNCC5)cc4c3C(C)C)ccc2n1` [Example 115, 6-(3-isopropyl-5-(piperidin-4-yl)-1H-indol-2-yl)-2-methylimidazo[1,2-a]pyridine]: the IC50 at human TLR7 was below 100 nM; against human TLR8 it was 100 to 1000 nM; against human TLR9, 100 to 1000 nM.
As for `COc1cc(-c2[nH]c3ccc(C4CCN(CC(C)(C)O)CC4)cc3c2C(C)C)cn2ccnc12` [Example 775, 1-(4-(3-isopropyl-2-(8-methoxyimidazo[1,2-a]pyridin-6-yl)-1H-indol-5-yl)piperidin-1-yl)-2-methylpropan-2-ol], the figures for the IC50 at human TLR7, against human TLR8 and against human TLR9 were below 100 nM, below 100 nM and 100 to 1000 nM, respectively.
On to `Cc1cnc2[nH]ccc2c1-c1[nH]c2ccc(C3CCNCC3)cc2c1C(C)C` [Example 247, 4-(3-isopropyl-5-(piperidin-4-yl)-1H-indol-2-yl)-5-methyl-1H-pyrrolo[2,3-b]pyridine], for which the IC50 against human TLR7 is below 100 nM; at human TLR8, below 100 nM; against human TLR9, 1000 to 50000 nM.
Regarding `CCc1c(-c2ccnc3[nH]ccc23)[nH]c2ccc(C3CCN(Cc4cccn4C)CC3)cc12` [Example 871, 4-(3-ethyl-5-(1-((1-methyl-1H-pyrrol-2-yl)methyl)piperidin-4-yl)-1H-indol-2-yl)-1H-pyrrolo[2,3-b]pyridine], the IC50 at human TLR7 is 100 to 1000 nM; against human TLR8 it was below 100 nM; at human TLR9 it was 1000 to 50000 nM.
For `Cc1cc(-c2[nH]c3ccc(C4CCNCC4)cc3c2C(C)C)cn2cc(C(=O)NCC(C)(C)O)nc12` [Example 270, N-(2-hydroxy-2-methylpropyl)-6-(3-isopropyl-5-(piperidin-4-yl)-1H-indol-2-yl)-8-methylimidazo[1,2-a]pyridine-2-carboxamide] the same measures were 100 to 1000 nM, 100 to 1000 nM and 1000 to 50000 nM.
`COc1ccc(CN2CCC(c3ccc4[nH]c(-c5ccc6nccn6c5)c(C(C)C)c4c3)CC2)cn1` [Example 935, 6-(3-isopropyl-5-(1-((6-methoxypyridin-3-yl)methyl)piperidin-4-yl)-1H-indol-2-yl)imidazo[1,2-a]pyridine]: the IC50 at human TLR7 is below 100 nM; at human TLR8, below 100 nM; against human TLR9 it was 100 to 1000 nM.
On to `CC(C)c1c(-c2ccc3cnnn3c2)[nH]c2ccc(C3CCN(C4COC4)CC3)cc12` [Example 734, 6-(3-isopropyl-5-(1-(oxetan-3-yl)piperidin-4-yl)-1H-indol-2-yl)-[1,2,3]triazolo[1,5-a]pyridine], for which the IC50 on human TLR7 is 100 to 1000 nM; against human TLR8, 100 to 1000 nM; at human TLR9, 1000 to 50000 nM.
As for `CNC(=O)CN1CCC(c2ccc3[nH]c(-c4cc(OC)n5nc(C)nc5c4)c(C(C)C)c3c2)CC1` [Example 347, 2-(4-(3-isopropyl-2-(5-methoxy-2-methyl-[1,2,4]triazolo[1,5-a]pyridin-7-yl)-1H-indol-5-yl)piperidin-1-yl)-N-methylacetamide], the IC50 against human TLR7 was below 100 nM; against human TLR8, below 100 nM; on human TLR9, 1000 to 50000 nM.
On to `Cc1c(-c2[nH]c3ccc(C4CCN(C(=O)CN(C)C)CC4)cc3c2C(C)C)cn2ccnc2c1C` [Example 549, 2-(dimethylamino)-1-(4-(2-(7,8-dimethylimidazo[1,2-a]pyridin-6-yl)-3-isopropyl-1H-indol-5-yl)piperidin-1-yl)ethan-1-one], for which the IC50 is below 100 nM on human TLR7, below 100 nM on human TLR8 and 100 to 1000 nM on human TLR9.
